Laboratory results taken from patent US10137105B2, “Combination treatment protocol” (Bionomics Limited, priority 2015, dated 2018).

Tests used:
[1] = molecular target: hERG channel (Homo sapiens, UniProt Q12809); assay: hERG channel inhibition, in vitro testing; assay type: biochemical
Source text: (§1) Signs of cardiomyopathy were decreased in severity and incidence by 14 days after the 2-cycles of treatment, indicating recovery or reversibility of the effects. The implications of these findings for humans are not clear as these cardiovascular effects were not observed in dog toxicity studies. […] Thus an effect on the hERG channel is expected to be slight, if any, at efficacious doses of Example 2.

[2] = tested on: Jeko-1 cells; assay: Kinetics of apoptosis in Jeko-1 cells (Western blots); assay type: cell-based; conditions: 20 nM EX2 (FIG. 6)
Description: FIG. 6: Kinetics of compounds of Formula (I) induced apoptosis in Jeko-1 cells. Western blots of Jeko-1 cells incubated with 20 nM compounds of Formula (I). “C”=a control cell line incubated with 2 μM vinblastine as a positive control for protein expression.
(§2) Cells were lysed in urea sample buffer [4 mol/L urea, 10% β-mercaptoethanol, 6% w/v SDS, 125 mmol/L Tris (pH 6.8), 0.01% w/v bromphenol blue, and protease/phosphatase inhibitor cocktail] and boiled for 5 min. Proteins were subsequently separated by SDS-PAGE (10 or 15% w/v) and transferred to polyvinylidene difluoride membrane (Millipore). Membranes were blocked with 5% w/v nonfat milk in TBS and 0.05% w/v Tween 20, and were probed with the appropriate primary antibody overnight. Subsequently, membranes were washed in TBS and 0.05% w/v Tween 20, and then incubated with secondary antibody conjugated to horseradish peroxidase. Proteins were visualized by enhanced chemiluminescence (Amersham). Actin was used as a loading control in Western blots.

[3] = tested on: CLL cells on L4.5 stroma; assay: Apoptosis of CLL cells co-incubated 24 h on CD154+ L4.5 stromal cells; assay type: cell-based, human
Description: (§3) CLL cells were obtained from consented patients at the Norris Cotton Cancer Center. Cells were purified by centrifugation in Ficoll-Paque PLUS from 10 mL of blond. Lymphocytes were plated in RPMI 1640 plus 10% serum at 1×10^6 cells/mL after three washes in PBS+2 mmol/L EDTA. Cells were either incubated immediately with reagents or after 24 h incubation with confluent layers of CD154+ stromal cells (L 4.5) at a ratio of 5:1.
(§4) Cells were incubated for […] with 2 μg/mL Hoechst 33342 at 37° C. and visualized with a fluorescent microscope. At least 200 cells were scored for each sample. The percentage of cells with condensed chromatin was recorded.
The experiments above have shown that CLL cells are usually very sensitive to EX2. However, these cells were isolated from peripheral blood, and the real problem to curing CLL is to be able to kill cells that reside in the lymph node or bone marrow niche. To mimic this niche, we have used L4.5 cells that express CD154. Co-incubation of CLL cells on this stroma for 24 h elicits marked resistance to many drugs including the BCL-2 inhibitor ABT-199 (FIG. 7). […] However, when ABT-199 and EX2 were combined, marked apoptosis was again observed. For example, 100 nM ABT-199 alone induced about 10% apoptosis, whereas when combined with 1 μM EX2, >60% apoptosis was observed within 6 h. The combination of 1 μM EX2 and 1 μM ABT-199 induced about 80% apoptosis. […]

[4] = tested on: normal peripheral lymphocytes; assay: Toxicity to normal peripheral lymphocytes (PARP cleavage, chromatin condensation); assay type: cell-based, human; conditions: for PARP cleavage / apoptosis in normal peripheral lymphocytes: 0-1 μM EX2, 1-10 nM ABT-199 or 100 nM dinaciclib, each alone
Description: as §4, §2
To test the potential toxicity of EX2, normal peripheral lymphocytes were isolated from a healthy volunteer and incubated with EX2 alone or in combination with ABT-199.

[5] = tested on: malignant pleural mesothelioma; assay: Phase II study of Example 2 in patients with malignant pleural mesothelioma; assay type: in vivo, human
Description: (§5) The recommended Phase 2 dose (RP2D) of Example 2 is evaluated in subjects with advanced solid tumors. Dosing is at a level of 2.1 mg/m^2. The dose of 16 mg/m^2 is deemed to be an MTD. In this study, adverse events are seen across all dose groups. The two most common categories of AE's are gastrointestinal disorders (nausea, vomiting, constipation) and general disorders (predominantly fatigue). Disorders related to bone marrow suppression are rare. Anemia is reported in one patient at a dose level of 8.4 mg/m^2 and in two patients at a dose level of 18.9 mg/m^2. […] Similarly, in a phase 11 study of Example 2 in patients with malignant pleural mesothelioma grade 1-2 gastrointestinal and general disorders are the predominant AE's: in 87% and 50% of patients correspondingly. Grade 3 fatigue is observed in 8% of patients. Finally, grade 1-2 anemia is reported in 33% of study participants.

[6] = tested on: microtubules in PBMCs; assay: Disruption of microtubules in PBMCs of dosed subjects; assay type: in vivo, human; conditions: doses of 12.6 and 16 mg/m^2
[7] = 2-cycle rat toxicity study; assay type: in vivo; conditions: rats, 2 cycles; decreased in severity and incidence by 14 days after treatment
Source text: as §1

[8] = tested on: CLL cells; assay: Immunoblot analysis (PARP cleavage, pJNK, Noxa) in CLL cells; assay type: cell-based, human
Description: as §3, §2

[9] = tested on: advanced solid tumors; assay: Phase I study of Example 2 in subjects with advanced solid tumors; assay type: in vivo, human
Description: as §5
Thus, this study employs 8 mg/m^2 iv on days 1 and 8 (cycle 1) or 8 and 15 (cycles 2-6) of a 21-day cycle as a starting dose of Example 2. This dose corresponds to a dose one tier below that sufficient to induce disruption of microtubules, yet also is lower than the currently established MTD in a Phase I study of Example 2 in patients with solid tumors. […] The study follows a standard 3+3 Phase I design (between 3 and 6 patients are enrolled at each dose tier). The dose of the drug is escalated to 16 mg/m^2, toxicities permitting. If toxicities emerge at dose level 1, the dose of Example 2 is de-escalated to 4 mg/m^2. […] Preliminary assessment of response and pharmacodynamic endpoints of treatment with Example 2 is assessed at several dose levels allowing for more careful selection of RP2D in CLL.

[10] = Dog toxicity studies, cardiovascular effects; assay type: in vivo; conditions: dogs
Source text: as §1

[11] = Cardiovascular safety pharmacology study in telemetered dogs; assay type: in vivo, dog; conditions: doses up to 0.8 mg/kg (highest dose assessed)
Source text: as §1

[12] = tested on: CLL cells; assay: Chromatin condensation (Hoechst 33342) apoptosis scoring in freshly isolated CLL cells; assay type: cell-based, human
Description: as §3, §4

[13] = healthy volunteer, 6 h, 0-1 μM EX2

Sequence of hERG channel (Q12809 whole entry): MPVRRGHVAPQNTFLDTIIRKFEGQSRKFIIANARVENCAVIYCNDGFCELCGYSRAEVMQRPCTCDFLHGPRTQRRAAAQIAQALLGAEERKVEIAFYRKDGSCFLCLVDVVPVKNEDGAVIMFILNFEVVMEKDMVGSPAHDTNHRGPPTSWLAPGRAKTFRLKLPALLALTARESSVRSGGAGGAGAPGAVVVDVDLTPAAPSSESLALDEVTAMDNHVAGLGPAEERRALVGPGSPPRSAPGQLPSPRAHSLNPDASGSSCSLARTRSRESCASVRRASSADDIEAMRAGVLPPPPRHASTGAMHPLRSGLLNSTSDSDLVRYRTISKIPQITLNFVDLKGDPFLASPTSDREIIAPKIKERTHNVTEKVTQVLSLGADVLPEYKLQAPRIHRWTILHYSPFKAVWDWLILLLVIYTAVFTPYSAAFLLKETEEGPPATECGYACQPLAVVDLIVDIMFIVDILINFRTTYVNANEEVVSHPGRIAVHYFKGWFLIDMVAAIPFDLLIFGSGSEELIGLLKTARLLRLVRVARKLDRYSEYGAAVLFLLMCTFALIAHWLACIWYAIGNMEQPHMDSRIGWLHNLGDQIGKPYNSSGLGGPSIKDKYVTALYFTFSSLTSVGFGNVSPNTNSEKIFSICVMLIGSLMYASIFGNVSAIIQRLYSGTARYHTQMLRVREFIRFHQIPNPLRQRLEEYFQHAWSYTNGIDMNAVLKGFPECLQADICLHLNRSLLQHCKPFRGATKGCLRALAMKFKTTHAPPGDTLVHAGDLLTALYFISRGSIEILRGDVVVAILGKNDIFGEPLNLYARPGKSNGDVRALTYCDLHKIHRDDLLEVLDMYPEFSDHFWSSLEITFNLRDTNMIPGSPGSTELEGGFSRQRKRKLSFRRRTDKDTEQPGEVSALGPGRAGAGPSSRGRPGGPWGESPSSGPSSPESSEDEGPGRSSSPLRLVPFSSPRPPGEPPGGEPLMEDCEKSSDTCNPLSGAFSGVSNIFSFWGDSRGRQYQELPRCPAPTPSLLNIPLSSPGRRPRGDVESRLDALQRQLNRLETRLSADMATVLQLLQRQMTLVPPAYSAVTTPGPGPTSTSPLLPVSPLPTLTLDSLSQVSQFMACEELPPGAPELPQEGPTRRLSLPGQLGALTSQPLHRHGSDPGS

COc1cc(C(=O)c2c(C)oc3c(OP(=O)([O-])[O-])c(OC)ccc23)cc(OC)c1OC.[Na+].[Na+] [Example 2, Disodium 6-methoxy-2-methyl-3-(3,4,5-trimethoxybenzoyl)benzofuran-7-yl phosphate]
IC50 [1]: > 979 µM
time by which apoptosis was complete [2]: up to 24 h
apoptosis of co-cultured CLL cells, EX2 alone ([3]; 1 μM EX2, 24 h on L4.5 stroma then 6 h drug): no apoptosis observed
Noxa induction in normal peripheral lymphocytes [4, 13]: no Noxa was induced
pJNK in normal peripheral lymphocytes [4, 13]: activated
PARP cleavage / apoptosis in normal peripheral lymphocytes ([4]; healthy volunteer, 6 h): no significant PARP cleavage or chromatin condensation
Grade 3 fatigue, patients [5]: 8%
grade 1-2 anemia, study participants [5]: 33%
grade 1-2 gastrointestinal disorders, patients [5]: 87%
grade 1-2 general disorders, patients [5]: 50%
effect on microtubules in PBMCs [6]: briefly disrupt microtubules
cardiac finding [7]: dose-dependent, reversible cardiomyopathy
PARP cleavage in presence of JNK inhibitor VIII ([8]; 0-1 μM EX2, 6 h, with JNK inhibitor VIII): completely prevented
PARP cleavage by 24 h ([8]; 20 nM, patient 114, incubated up to 24 h (FIG. 5)): almost total cleavage of PARP
JNK activation and PARP cleavage five hours after removing EX2 ([8]; 1 h pulse treatment, then 5 h without EX2, versus continuous incubation): still observed albeit slightly less
concentration at which apoptosis, pJNK and Noxa expression began to appear ([8]; 6 h, patient 49 (FIG. 2A)): 5 nM
time to activation of JNK ([8]; CLL cells incubated with EX2): less than one hour
pJNK and NOXA in protein lysates ([8]; same concentrations of EX2 (10-100 nM), 6 h): increased
anemia, patients reported ([9]; dose level 8.4 mg/m^2): one patient
anemia, patients reported ([9]; dose level 18.9 mg/m^2): two patients
grade 4 events ([9]; dose level 18.9 mg/m^2, same subject): Two grade 4 events (myocardial infarction and peripheral neuropathy)
MTD ([9]; subjects with advanced solid tumors): 16 mg/m^2
effects on the cardiovascular system [10]: no effects on the cardiovascular system
effects on cardiovascular or respiratory function [11]: no effects on cardiovascular or respiratory function
potency as inducer of apoptosis compared with vinblastine and combretastatin A4 ([12]; chromatin condensation and PARP cleavage, 6 h, 3-6 patients): more potent inducer of apoptosis
concentration at which apoptosis (chromatin condensation) was observed ([12]; freshly isolated CLL cells, media with 0-1 μM EX2, 6 h (FIG. 1)): 10 to 100 nM

CCc1cnn2c(NCc3ccc[n+]([O-])c3)cc(N3CCCC[C@H]3CCO)nc12 [Dinaciclib, reference compound]
PARP cleavage / apoptosis in normal peripheral lymphocytes ([4]; healthy volunteer, 6 h): some apoptosis

COc1cc(C(=O)c2c(C)oc3c(O)c(OC)ccc23)cc(OC)c1OC [Example 1, 2-Methyl-7-hydroxy-3-(3,4,5-trimethoxybenzoyl)-6-methoxybenzofuran]
IC50 [1]: > 6.71 µM

CC1(C)CCC(CN2CCN(c3ccc(C(=O)NS(=O)(=O)c4ccc(NCC5CCOCC5)c([N+](=O)[O-])c4)c(Oc4cnc5[nH]ccc5c4)c3)CC2)=C(c2ccc(Cl)cc2)C1 [ABT-199, reference compound]
apoptosis ([3]; 100 nM ABT-199 alone, CLL cells on stroma, 6 h): about 10%
chromatin condensation in normal peripheral lymphocytes ([4]; ABT-199 1-10 nM with or without EX2, 6 h): no chromatin condensation was observed
PARP cleavage / apoptosis in normal peripheral lymphocytes ([4]; healthy volunteer, 6 h): slight PARP cleavage
